{"source": "paper PMC9643456", "about": "“Matching amino acids membrane preference profile to improve activity of antimicrobial peptides” (Communications Biology, 2022)", "key": {"MDR S. aureus": {"tested_on": "MDR S. aureus", "experiment": "Killing kinetics in the SEM sample", "format": "cell-based, Staphylococcus aureus", "conditions": "2 × 10^8 cfu/ml, x1 MIC, PBS, after 4 hours", "protocol": "(§1) FE-SEM was used to observe peptide-induced changes in bacterial morphology. MDR A. baumannii (ATCC BAA-1605) and MDR S. aureus (KCCM 40510) were cultured in CAMHB to log phase and washed in PBS. Bacteria and peptides were diluted in PBS, after which aliquots of bacteria (50 μl) and peptides (50 μl) were mixed to yield the following final concentrations: MDR A. baumannii or MDR S. aureus, 2 × 10^8 CFU/ml; WCopW29, 2.5 μM. Mixtures were deposited onto cover glass slips and incubated for 0 min, 15 min, 30 min, 1 h or 4 h. After incubation, the bacteria were fixed with paraformaldehyde (4%) and osmium tetroxide (1%) (Sigma, Darmstadt, Germany), washed with water, and freeze-dried overnight. Freeze-dried samples were Pt-coated and placed in an S-4700, EMAX System field emission scanning electron microscope (Hitachi, Tokyo, Japan). Bacterial morphologies were imaged and recorded on video at magnifications of 10,000× and 25,000×.\n(§2) Antimicrobial kinetics for each peptide and each bacterial strain were assessed using FE-SEM. […] Each experiment was performed in triplicate."}, "E. coli ML35": {"tested_on": "E. coli ML35", "conditions": "ML35, 18 h", "protocol": "To assess antimicrobial activity, the MIC50 and MIC90 were measured using broth microdilution following CLSI guidelines. […] Each experiment was performed in triplicate. Meropenem (Sigma, Darmstadt, Germany) and colistin were used as control antibiotics. Cation-adjusted Mueller–Hinton broth (CAMHB) (Becton, Dickinson and Company, Franklin Lakes, USA) with supplied calcium (50 mg/L) and magnesium (10 mg/L) was used for the CLSI-test condition. Bacteria in midlog phase and peptides were separately diluted in CAMHB. The bacteria and peptide solutions were then mixed in 96-well polyethylene plates (SPL, Gyeonggi-do, Korea) and incubated for 18 h at 37 °C. The final concentration for bacteria was 5 × 10^5 CFU/ml. […] The MIC was defined to be the lowest concentration of peptide without visible turbidity by comparing with control antibiotics with the unaided eye. […] MICs in albumin and acetic acid solutions were measured using the same protocol but with 0.2% bovine serum albumin (Bovogen, Keilor, Australia), 0.01% acetic acid (Merck, New Jersey, USA), and CAMHB with both calcium and magnesium. In addition, MICs used in the antibiotic resistance acquisition test, the outer–inner membrane permeation test, and the transmembrane potential test and for FE-SEM were individually determined. […] Inhibitory activity unidentifiable by direct observation was determined by counting the CFUs. […]"}, "A. baumannii KCCM 40203": {"tested_on": "A. baumannii KCCM 40203", "experiment": "microbe, parasite or virus in culture", "conditions": "bacteria OD 0.01, CAMHB", "protocol": "(§3) To assess antimicrobial activity, the MIC50 and MIC90 were measured using broth microdilution following CLSI guidelines. […] Each experiment was performed in triplicate. Meropenem (Sigma, Darmstadt, Germany) and colistin were used as control antibiotics. Cation-adjusted Mueller–Hinton broth (CAMHB) (Becton, Dickinson and Company, Franklin Lakes, USA) with supplied calcium (50 mg/L) and magnesium (10 mg/L) was used for the CLSI-test condition. Bacteria in midlog phase and peptides were separately diluted in CAMHB. The bacteria and peptide solutions were then mixed in 96-well polyethylene plates (SPL, Gyeonggi-do, Korea) and incubated for 18 h at 37 °C. The final concentration for bacteria was 5 × 10^5 CFU/ml. […] The MIC was defined to be the lowest concentration of peptide without visible turbidity by comparing with control antibiotics with the unaided eye. […] Each experiment was performed in triplicate. MICs in albumin and acetic acid solutions were measured using the same protocol but with 0.2% bovine serum albumin (Bovogen, Keilor, Australia), 0.01% acetic acid (Merck, New Jersey, USA), and CAMHB with both calcium and magnesium. In addition, MICs used in the antibiotic resistance acquisition test, the outer–inner membrane permeation test, and the transmembrane potential test and for FE-SEM were individually determined. The final bacterial concentrations used were as follows: for resistance acquisition, optical density (OD) 0.01; for outer–inner membrane permeability assays (LB), OD 0.1; for the transmembrane potential test, 1 × 10^8 CFU/ml (OD 0.171); […]. Inhibitory activity unidentifiable by direct observation was determined by counting the CFUs. Each experiment was performed at least twice.\n(§4) A. baumannii (KCCM 40203) and S. aureus (KCTC 1621) were selected as drug-sensitive bacteria. Mutation-susceptible tetracycline (an antibiotic that targets ribosomes) (Sigma, Darmstadt, Germany) and ofloxacin (an antibiotic that targets DNA gyrase) (Sigma, Darmstadt, Germany), mutation-resistant colistin (an antibiotic that targets lipopolysaccharide) (Sigma, Darmstadt, Germany) and vancomycin (an antibiotic that targets peptidoglycan pentapeptide) (Sigma, Darmstadt, Germany) were used as control antibiotics. The MIC for each antibiotic against bacteria (at OD 0.01) was measured. […] The MIC for each passage was confirmed by additional broth microdilutions under CLSI guidelines. Resistance acquisition was induced for 30 days (30 passages), and each MIC value was confirmed by an independent MIC test against bacteria at each passage."}, "[1]": {"tested_on": "A. baumannii (KCCM 40203) and S. aureus (KCTC 1621)", "conditions": "MIC and sub-MIC exposure for 30 days (30 passages)", "text": "as §4"}, "MDR A. baumannii": {"tested_on": "MDR A. baumannii", "experiment": "Killing kinetics in the SEM sample", "format": "cell-based, Acinetobacter baumannii", "conditions": "2 × 10^8 cfu/ml, x1 MIC, PBS, after 4 hours", "protocol": "as §1, §2"}, "E. aerogenes NCCP 16285": {"tested_on": "E. aerogenes NCCP 16285", "experiment": "microbe, parasite or virus in culture", "protocol": "as §3"}, "[2]": {"tested_on": "colistin-resistant A. baumannii", "experiment": "In vivo activity, survival of infected mice", "conditions": "mouse model infected with colistin-resistant A. baumannii", "protocol": "Female BALB/c mice (8-week old; n = 10) were purchased from orientbio (Gyeonggido, Republic of Korea) and fed under standardized environmental conditions for 1 week to be used to estimate time-dependent mouse survival rates. After inducing neutropenia by intraperitoneal injection of cyclophosphamide (150 mg/kg; Sigma), MDR S. aureus (KCCM 40510), MDR A. baumannii (colistin-resistant strain) or MDR K. pneumonia (colistin-resistant strain, NCCP 16125) was diluted in PBS and subcutaneously injected into mice (S. aureus, 1.5 × 10^8 CFU/ml; A. baumannii, 1 × 10^8 CFU/ml; K. pneumonia, 1 × 10^9 CFU/ml). After bacterial infection, 100 μl of WCopW43 peptide dissolved in distilled water (10 mg/ml) were injected (50 mg/kg) into each infected site, and survival was monitored every 12 h for 7 days. For A. baumannii infection, mice were intraperitoneally injected with mucin ([…], 1% in PBS, 300 μl) to suppress macrophages, and A. baumannii cells were incubated with mucin (1% in PBS) for 3 h before subcutaneous injection of 2 × 10^8 CFU/ml (0.2% mucin in PBS)[71]–[74]. Survival rates were calculated using the formula: 100% × (number of surviving mice/ten mice). One day after WCopW43 (50 mg/kg) injection, four mice were randomly selected and sacrificed by CO2 inhalation. […] Homogenized samples were spread onto MH agar plates, and CFU values were determined after incubation overnight at 37 °C."}, "[3]": {"conditions": "100 mg/kg s.c. daily for 3 days, n = 3; BUN and creatinine", "experimental": "To assess nephrotoxicity, mice (female BALB/c, 8 weeks old; n = 3) were subcutaneously administered WCopW43 (100 mg/kg) or PBS (controls) three times (once every 24 h). Blood samples were then collected from the retroorbital veins into heparin-coated glass capillary tubes (Kimble Chase, NJ, USA), which were then centrifuged at 4000 rpm. The serum was collected and analyzed using a blood urea nitrogen (BUN) assay kit (Arbor Assay, Ann Arbor, USA) and a creatinine assay kit (Arbor Assay). Levels of BUN and blood creatinine clearance were measured using a SpectraMax plate spectrophotometer (Molecular Devices) at 450 nm and 490 nm, respectively."}, "K. pneumonia strains": {"tested_on": "K. pneumonia strains", "experiment": "microbe, parasite or virus in culture"}}, "note": "Square brackets hold non-standard residues; d marks the D form. Peptide text beside a SMILES is read from it.", "data": [{"molecule": "CC[C@@H](C)[C@@H](NC(=O)[C@@H](Cc1c[nH]c2ccccc12)NC(=O)[C@H](NC(=O)[C@@H](CC(C)C)NC(=O)[C@H](N)Cc1c[nH]c2ccccc12)C(C)C)C(=O)N[C@H](Cc1c[nH]c2ccccc12)C(=O)N[C@H](CCCNC(=N)N)C(=O)N[C@H](CCCNC(=N)N)C(=O)N[C@H](CCCNC(=N)N)C(N)=O", "note": "[WCopW29] (H-[dW][dL][dV][dW][dI][dW][dR][dR][dR]-NH2)", "values": [{"measurement": "Loss of colony forming", "setting": "MDR S. aureus", "value": 90, "unit": "%"}, {"measurement": "MIC at OM-IM permeation condition, E. coli ML35", "setting": "E. coli ML35", "value": 5, "unit": "µM"}, {"measurement": "MIC at resistance induction condition, A. baumannii KCCM 40203", "setting": "A. baumannii KCCM 40203", "value": 1.25, "unit": "µM"}, {"measurement": "MIC during resistance acquisition", "setting": "[1]", "value": "stable over a period of 30 days"}, {"measurement": "Loss of colony forming", "setting": "MDR A. baumannii", "value": 99, "unit": "%"}]}, {"molecule": "CC[C@@H](C)[C@@H](NC(=O)[C@@H](Cc1c[nH]c2ccccc12)NC(=O)[C@@H](CCCNC(=N)N)NC(=O)[C@@H](CCCNC(=N)N)NC(=O)[C@H](N)CCCNC(=N)N)C(=O)N[C@H](Cc1c[nH]c2ccccc12)C(=O)N[C@@H](C(=O)N[C@@H](C(=O)N[C@H](Cc1c[nH]c2ccccc12)C(=O)N[C@H](CCCCN)C(N)=O)[C@H](C)CC)C(C)C", "note": "[WCopW43] (H-[dR][dR][dR][dW][dI][dW][dV][dI][dW][dK]-NH2)", "values": [{"measurement": "MIC, E. aerogenes NCCP 16285", "setting": "E. aerogenes NCCP 16285; NCCP 16285, 18 h", "value": 1.25, "unit": "µM"}, {"measurement": "MIC during resistance acquisition", "setting": "[1]", "value": "emergence of WCopW43 resistance is suppressed"}, {"measurement": "Survival rate", "setting": "[2]", "value": 100, "unit": "%"}, {"measurement": "Nephrotoxicity indicators", "setting": "[3]", "value": "non-nephrotoxic"}, {"measurement": "MIC, K. pneumonia NCCP 15782", "setting": "K. pneumonia strains; 18 h", "value": 1.25, "unit": "µM"}, {"measurement": "MIC, K. pneumonia NCCP 15864", "setting": "K. pneumonia strains; 18 h", "value": 1.25, "unit": "µM"}, {"measurement": "MIC, K. pneumonia NCCP 15866", "setting": "K. pneumonia strains; 18 h", "value": 2.5, "unit": "µM"}, {"measurement": "MIC, K. pneumonia NCCP 16052", "setting": "K. pneumonia strains; 18 h", "value": 2.5, "unit": "µM"}, {"measurement": "MIC, K. pneumonia NCCP 16124", "setting": "K. pneumonia strains; 18 h", "value": 1.25, "unit": "µM"}, {"measurement": "MIC, K. pneumonia NCCP 16125", "setting": "K. pneumonia strains; 18 h", "value": 2.5, "unit": "µM"}, {"measurement": "MIC, K. pneumonia NCCP 16128", "setting": "K. pneumonia strains; 18 h", "value": 5, "unit": "µM"}, {"measurement": "MIC, K. pneumonia NCCP 16208", "setting": "K. pneumonia strains; 18 h", "value": 1.25, "unit": "µM"}, {"measurement": "MIC, K. pneumonia NCCP 16212", "setting": "K. pneumonia strains; 18 h", "value": 2.5, "unit": "µM"}, {"measurement": "MIC, K. pneumonia NCCP 16213", "setting": "K. pneumonia strains; 18 h", "value": 1.25, "unit": "µM"}]}, {"molecule": "Colistin", "values": [{"measurement": "MIC at resistance induction condition, A. baumannii KCCM 40203", "setting": "A. baumannii KCCM 40203", "value": 1.25, "unit": "µM"}, {"measurement": "MIC, E. aerogenes NCCP 16285", "setting": "E. aerogenes NCCP 16285; MIC test, 5 x 10^5 cfu/ml, CAMHB", "value": "> 5", "unit": "µM"}, {"measurement": "Survival rate", "setting": "[2]", "value": 90, "unit": "%"}, {"measurement": "MIC, K. pneumonia NCCP 15782", "setting": "K. pneumonia strains; CLSI", "value": 1.25, "unit": "µM"}, {"measurement": "MIC, K. pneumonia NCCP 15864", "setting": "K. pneumonia strains; CLSI", "value": 0.63, "unit": "µM"}, {"measurement": "MIC, K. pneumonia NCCP 15866", "setting": "K. pneumonia strains; CLSI", "value": 0.63, "unit": "µM"}, {"measurement": "MIC, K. pneumonia NCCP 16052", "setting": "K. pneumonia strains; CLSI", "value": 0.63, "unit": "µM"}, {"measurement": "MIC, K. pneumonia NCCP 16124", "setting": "K. pneumonia strains; CLSI", "value": 20, "unit": "µM"}, {"measurement": "MIC, K. pneumonia NCCP 16128", "setting": "K. pneumonia strains; CLSI", "value": 5, "unit": "µM"}, {"measurement": "MIC, K. pneumonia NCCP 16208", "setting": "K. pneumonia strains; CLSI", "value": "< 0.31", "unit": "µM"}, {"measurement": "MIC, K. pneumonia NCCP 16212", "setting": "K. pneumonia strains; CLSI", "value": "< 0.31", "unit": "µM"}, {"measurement": "MIC, K. pneumonia NCCP 16213", "setting": "K. pneumonia strains; CLSI", "value": 0.63, "unit": "µM"}]}]}
